Assays:
Type in all cases: biochemical
Settings in all cases: 10 μM ATP, 60 min, ADP-GLO luminescence
c-MET = c-MET (Homo sapiens, UniProt P08581); assay: Enzymatic assay (ADP-Glo kinase reaction), c-MET
Summary of the method: (§1)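 For both AXL and c-MET, reactions in tyrosine kinase buffer used 0.2 μg/μL poly(Glu4,Tyr1) and 10 μM ATP with serially diluted inhibitor, 60 min at room temperature. ADP formed was read by ADP-Glo luminescence after 40 min reagent incubation.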

MER = target: T1, MER (Homo sapiens, UniProt Q12866); assay: Enzymatic assay (ADP-Glo kinase reaction), MER
T1 sequence (Q12866 21-999): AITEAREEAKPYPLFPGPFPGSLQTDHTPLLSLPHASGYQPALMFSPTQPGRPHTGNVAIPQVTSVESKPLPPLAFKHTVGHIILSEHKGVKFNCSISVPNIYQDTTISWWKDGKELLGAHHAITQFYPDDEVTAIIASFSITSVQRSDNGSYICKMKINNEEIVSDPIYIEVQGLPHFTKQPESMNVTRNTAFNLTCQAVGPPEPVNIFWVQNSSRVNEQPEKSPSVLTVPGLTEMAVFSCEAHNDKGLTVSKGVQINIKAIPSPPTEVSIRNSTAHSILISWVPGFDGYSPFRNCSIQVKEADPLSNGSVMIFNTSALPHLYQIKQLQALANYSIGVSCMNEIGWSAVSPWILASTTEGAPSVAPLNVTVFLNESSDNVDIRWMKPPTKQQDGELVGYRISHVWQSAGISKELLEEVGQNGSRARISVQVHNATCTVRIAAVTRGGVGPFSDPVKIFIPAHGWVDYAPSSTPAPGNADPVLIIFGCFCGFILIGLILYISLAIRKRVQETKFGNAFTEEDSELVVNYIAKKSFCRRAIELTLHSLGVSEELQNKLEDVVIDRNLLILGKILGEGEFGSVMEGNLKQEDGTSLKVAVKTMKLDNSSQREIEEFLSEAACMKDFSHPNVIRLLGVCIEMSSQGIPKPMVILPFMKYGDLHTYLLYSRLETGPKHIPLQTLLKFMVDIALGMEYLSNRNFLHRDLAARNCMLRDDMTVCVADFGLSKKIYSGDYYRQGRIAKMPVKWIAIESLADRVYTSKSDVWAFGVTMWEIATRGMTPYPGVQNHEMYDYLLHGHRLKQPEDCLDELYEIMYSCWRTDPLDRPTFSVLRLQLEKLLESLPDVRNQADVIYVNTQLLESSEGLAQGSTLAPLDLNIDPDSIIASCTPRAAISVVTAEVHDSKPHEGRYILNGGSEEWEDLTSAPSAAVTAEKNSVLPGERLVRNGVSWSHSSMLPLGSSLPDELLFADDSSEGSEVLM
Summary of the method: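 ADP-Glo luminescence assay of MER in tyrosine kinase buffer with 0.2 μg/μL poly(Glu4,Tyr1) substrate and 10 μM ATP. Serially diluted inhibitor reacted 60 min at room temperature. IC50 taken from luminescence after ADP-Glo and detection steps.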

AXL = target: T2, AXL (Homo sapiens, UniProt P30530); assay: Enzymatic assay (ADP-Glo kinase reaction), AXL
T2 sequence (P30530 26-894): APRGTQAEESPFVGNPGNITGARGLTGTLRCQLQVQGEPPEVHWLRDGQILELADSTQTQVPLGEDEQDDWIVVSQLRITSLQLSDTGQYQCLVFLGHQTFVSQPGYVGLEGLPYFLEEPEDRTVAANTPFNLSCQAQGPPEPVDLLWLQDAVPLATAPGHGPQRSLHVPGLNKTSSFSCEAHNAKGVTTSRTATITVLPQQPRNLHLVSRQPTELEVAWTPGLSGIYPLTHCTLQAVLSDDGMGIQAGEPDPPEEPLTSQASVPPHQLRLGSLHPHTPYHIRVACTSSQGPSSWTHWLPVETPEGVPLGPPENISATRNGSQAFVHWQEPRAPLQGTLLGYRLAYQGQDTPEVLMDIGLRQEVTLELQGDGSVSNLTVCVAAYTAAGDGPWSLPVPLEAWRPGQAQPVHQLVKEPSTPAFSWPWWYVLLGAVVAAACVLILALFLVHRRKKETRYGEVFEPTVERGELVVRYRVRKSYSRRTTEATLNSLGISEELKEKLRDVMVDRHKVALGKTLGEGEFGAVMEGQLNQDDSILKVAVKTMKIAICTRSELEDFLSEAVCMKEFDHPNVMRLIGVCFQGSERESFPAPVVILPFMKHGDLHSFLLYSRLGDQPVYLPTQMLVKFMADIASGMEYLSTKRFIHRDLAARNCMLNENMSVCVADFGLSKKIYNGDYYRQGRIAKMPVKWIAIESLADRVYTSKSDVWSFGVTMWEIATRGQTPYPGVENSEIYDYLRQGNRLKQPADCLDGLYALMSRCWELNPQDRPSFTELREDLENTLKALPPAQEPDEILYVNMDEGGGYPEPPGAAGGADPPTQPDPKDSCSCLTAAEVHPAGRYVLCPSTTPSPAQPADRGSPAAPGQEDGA
Summary of the method: as §1

Chain of c-MET (P08581 25-1390): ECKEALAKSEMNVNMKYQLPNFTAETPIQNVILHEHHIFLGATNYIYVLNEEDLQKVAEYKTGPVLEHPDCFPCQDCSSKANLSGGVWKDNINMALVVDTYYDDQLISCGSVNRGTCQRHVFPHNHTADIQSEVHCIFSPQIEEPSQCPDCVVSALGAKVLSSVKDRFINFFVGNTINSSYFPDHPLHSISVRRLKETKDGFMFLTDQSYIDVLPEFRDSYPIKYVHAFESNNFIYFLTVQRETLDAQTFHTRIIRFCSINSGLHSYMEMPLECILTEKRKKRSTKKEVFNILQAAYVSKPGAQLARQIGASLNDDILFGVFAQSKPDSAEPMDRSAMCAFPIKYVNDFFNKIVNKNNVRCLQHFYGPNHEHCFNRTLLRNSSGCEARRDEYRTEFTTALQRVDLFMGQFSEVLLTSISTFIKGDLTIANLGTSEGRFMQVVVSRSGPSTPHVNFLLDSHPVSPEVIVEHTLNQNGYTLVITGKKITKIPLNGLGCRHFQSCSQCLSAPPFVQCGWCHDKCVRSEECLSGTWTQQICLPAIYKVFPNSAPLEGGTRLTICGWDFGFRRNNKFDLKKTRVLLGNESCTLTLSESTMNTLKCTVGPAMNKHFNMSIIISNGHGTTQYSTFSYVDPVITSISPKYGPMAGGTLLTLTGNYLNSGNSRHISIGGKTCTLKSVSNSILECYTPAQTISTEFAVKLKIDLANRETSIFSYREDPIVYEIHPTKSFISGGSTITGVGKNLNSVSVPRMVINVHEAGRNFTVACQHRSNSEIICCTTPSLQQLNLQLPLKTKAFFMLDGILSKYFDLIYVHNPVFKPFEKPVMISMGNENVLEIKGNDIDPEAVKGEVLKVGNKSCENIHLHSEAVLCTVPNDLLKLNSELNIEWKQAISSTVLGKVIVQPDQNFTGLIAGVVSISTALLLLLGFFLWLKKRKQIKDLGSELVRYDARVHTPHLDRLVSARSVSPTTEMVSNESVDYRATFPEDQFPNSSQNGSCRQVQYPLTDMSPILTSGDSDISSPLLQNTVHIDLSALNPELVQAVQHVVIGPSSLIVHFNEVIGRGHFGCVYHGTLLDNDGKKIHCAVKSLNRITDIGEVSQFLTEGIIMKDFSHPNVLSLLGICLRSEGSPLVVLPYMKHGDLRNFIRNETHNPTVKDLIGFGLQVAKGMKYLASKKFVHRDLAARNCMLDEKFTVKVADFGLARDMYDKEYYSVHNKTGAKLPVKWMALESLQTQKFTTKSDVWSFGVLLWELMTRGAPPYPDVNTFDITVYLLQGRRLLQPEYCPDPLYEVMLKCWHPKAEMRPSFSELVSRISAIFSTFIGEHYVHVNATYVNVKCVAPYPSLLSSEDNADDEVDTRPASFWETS

| SMILES | IC50 (c-MET) | IC50 (MER) | IC50 (AXL) |
| --- | --- | --- | --- |
| CCCn1cc(C#Cc2c(Oc3ccc(NC(=O)c4cn(C(C)C)c(=O)n(-c5ccc(F)cc5)c4=O)cc3F)ccnc2N)cn1 [Example 13, N-(4-(2-amino-3-((1-propyl-1H-pyrazol-4-yl)ethynyl)pyridin-4-yloxy)-3-fluorophenyl)-3-(4-fluorophenyl)-1-isopropyl-2,4-dioxo-1,2,3,4-tetrahydropyrimidine-5-carboxamide] | < 1000 nM | < 10 nM | < 10 nM |
| CC(C)n1cc(C(=O)Nc2ccc(Oc3ccnc(N)c3-c3ccc(Oc4ccccc4)cc3)c(F)c2)c(=O)n(-c2ccc(F)cc2)c1=O [Example 10] | < 10000 nM | < 10 nM | < 100 nM |
| CC(C)n1cc(C(=O)Nc2ccc(Oc3ccnc(N)c3C#CC(C)(C)N3CCOCC3)c(F)c2)c(=O)n(-c2ccc(F)cc2)c1=O [Example 25, N-(4-(2-amino-3-(3-methyl-3-morpholinobut-1-ynyl)pyridin-4-yloxy)-3-fluorophenyl)-3-(4-fluorophenyl)-1-isopropyl-2,4-dioxo-1,2,3,4-tetrahydropyrimidine-5-carboxamide] | < 10 nM | < 10 nM | < 10 nM |
| COCCN1CCC(C#Cc2c(Oc3ccc(NC(=O)c4cn(C(C)C)c(=O)n(-c5ccc(F)cc5)c4=O)cc3F)ccnc2N)CC1 [Example 16] | < 10 nM | < 10 nM | < 10 nM |
| CC(C)n1cc(C(=O)Nc2ccc(Oc3ccnc(N)c3C#CCN3CCNCC3)c(F)c2)c(=O)n(-c2ccc(F)cc2)c1=O [Example 17] | < 10 nM | < 10 nM | < 10 nM |
| CC(C)(C#Cc1c(Oc2ccc(NC(=O)c3cn(C4CCOCC4)c(=O)n(-c4ccc(F)cc4)c3=O)cc2F)ccnc1N)N1CCNCC1 [Example 58, N-(4-(2-amino-3-(3-methyl-3-(piperazin-1-yl)but-1-ynyl)pyridin-4-yloxy)-3-fluorophenyl)-3-(4-fluorophenyl)-2,4-dioxo-1-(tetrahydro-2H-pyran-4-yl)-1,2,3,4-tetrahydropyrimidine-5-carboxamide] | < 100 nM | < 10 nM | < 100 nM |
| COCCN1CCN(C(=O)/C=C/c2c(Oc3ccc(NC(=O)c4cn(C(C)C)c(=O)n(-c5ccc(F)cc5)c4=O)cc3F)ccnc2N)CC1 [Example 4, (E)-N-(4-(2-amino-3-(3-(4-(2-methoxyethyl)piperazin-1-yl)-3-oxoprop-1-enyl)pyridin-4-yloxy)-3-fluorophenyl)-3-(4-fluorophenyl)-1-isopropyl-2,4-dioxo-1,2,3,4-tetrahydropyrimidine-5-carboxamide] | < 10 nM | < 10 nM | < 10 nM |
| Cc1nc(Cn2cc(C(=O)Nc3ccc(Oc4ccnc(N)c4C#CCC4CCNCC4)c(F)c3)c(=O)n(-c3ccc(F)cc3)c2=O)cs1 [Example 44, N-(4-((2-amino-3-(3-(piperidin-4-yl)prop-1-yn-1-yl)pyridin-4-yl)oxy)-3-fluorophenyl)-3-(4-fluorophenyl)-1-((2-methylthiazol-4-yl)methyl)-2,4-dioxo-1,2,3,4-tetrahydropyrimidine-5-carboxamide] | < 10 nM | < 10 nM | < 10 nM |
| CN(C)C(=O)Cn1cc(C(=O)Nc2ccc(Oc3ccnc(N)c3C#CC(C)(C)N3CCNCC3)c(F)c2)c(=O)n(-c2ccc(F)cc2)c1=O [Example 35, N-(4-((2-amino-3-(3-methyl-3-(piperazin-1-yl)but-1-yn-1-yl)pyridin-4-yl)oxy)-3-fluorophenyl)-1-(2-(dimethylamino)-2-oxoethyl)-3-(4-fluorophenyl)-2,4-dioxo-1,2,3,4-tetrahydropyrimidine-5-carboxamide] | < 10000 nM | < 100 nM | < 10000 nM |
| CC(C)n1cc(C(=O)Nc2ccc(Oc3ccnc(N)c3C#N)c(F)c2)c(=O)n(-c2ccc(F)cc2)c1=O [Example 5, N-(4-(2-amino-3-cyanopyridin-4-yloxy)-3-fluorophenyl)-3-(4-fluorophenyl)-1-isopropyl-2,4-dioxo-1,2,3,4-tetrahydropyrimidine-5-carboxamide] | < 10 nM | < 10 nM | < 10 nM |
| Cn1nc(C(=O)Nc2ccc(Oc3ccnc(N)c3C#CC(C)(C)N3CCOCC3)c(F)c2)c(=O)n(-c2ccc(F)cc2)c1=O [Example 48, N-(4-(2-amino-3-(3-methyl-3-morpholinobut-1-ynyl)pyridin-4-yloxy)-3-fluorophenyl)-4-(4-fluorophenyl)-2-methyl-3,5-dioxo-2,3,4,5-tetrahydro-1,2,4-triazine-6-carboxamide] | < 100 nM | < 1000 nM | < 100 nM |
| CC(C)N1CCC(CC#Cc2c(Oc3ccc(NC(=O)c4cn(C(C)C)c(=O)n(-c5ccc(F)cc5)c4=O)cc3F)ccnc2N)CC1 [Example 29, N-(4-(2-amino-3-(3-(1-isopropylpiperidin-4-yl)prop-1-ynyl)pyridin-4-yloxy)-3-fluorophenyl)-3-(4-fluorophenyl)-1-isopropyl-2,4-dioxo-1,2,3,4-tetrahydropyrimidine-5-carboxamide] | < 10 nM | < 10 nM | < 10 nM |
| CC(C)(C#Cc1c(Oc2ccc(NC(=O)c3cn(C4CCOCC4)c(=O)n(-c4ccc(F)cc4)c3=O)cc2F)ccnc1N)N1CCOCC1 [Example 55, N-(4-(2-amino-3-(3-methyl-3-morpholinobut-1-ynyl)pyridin-4-yloxy)-3-fluorophenyl)-3-(4-fluorophenyl)-2,4-dioxo-1-(tetrahydro-2H-pyran-4-yl)-1,2,3,4-tetrahydropyrimidine-5-carboxamide] | < 100 nM | < 100 nM | < 100 nM |
| CN1CCC(CC#Cc2c(Oc3ccc(NC(=O)c4cn(CC(=O)N(C)C)c(=O)n(-c5ccc(F)cc5)c4=O)cc3F)ccnc2N)CC1 [Example 37, N-(4-((2-amino-3-(3-(1-methylpiperidin-4-yl)prop-1-yn-1-yl)pyridin-4-yl)oxy)-3-fluorophenyl)-1-(2-(dimethylamino)-2-oxoethyl)-3-(4-fluorophenyl)-2,4-dioxo-1,2,3,4-tetrahydropyrimidine-5-carboxamide] | < 10000 nM | < 10 nM | < 100 nM |
| Cc1nc(Cn2cc(C(=O)Nc3ccc(Oc4ccnc(N)c4C#CC(C)(C)N4CCNCC4)c(F)c3)c(=O)n(-c3ccc(F)cc3)c2=O)cs1 [Example 41, N-(4-((2-amino-3-(3-methyl-3-(piperazin-1-yl)but-1-yn-1-yl)pyridin-4-yl)oxy)-3-fluorophenyl)-3-(4-fluorophenyl)-1-((2-methylthiazol-4-yl)methyl)-2,4-dioxo-1,2,3,4-tetrahydropyrimidine-5-carboxamide] | < 100 nM | < 100 nM | < 100 nM |

Source: patent publication US20250171426A1, “PYRIMIDINEDIONE-BASED COMPOUNDS AS AXL, C-MET, AND MER INHIBITORS AND METHODS OF USE THEREOF” (CMG Pharmaceutical Co., Ltd., priority 2022, published 2025)
